Data taken from patent publication US12186294B2, “Modulators of prostate-specific g-protein receptor (PSGR/OR51E2) and methods of using same” (Duke University, priority 2016, dated 2025).
Square brackets hold non-standard residues; d marks the D form. Peptide text beside a SMILES is read from it.

Assays:
OR51E2 = molecular target: T1, OR51E2 (Homo sapiens, UniProt Q9H255); experiment: in vitro luciferase assay (CRE-Luc) in Hana3A cells transfected with OR51E2; format: cell-based; conditions: for EC50: OR51E2 agonist, Hana3A cells, luciferase, read-out: EC50 (potency); for Efficacy: compared to the 1 mM PA response
T1 construct: expressed in transfected cells; host or cells: Hana3A cells (modified human embryonic kidney cells)
T1 sequence (Q9H255 1-320): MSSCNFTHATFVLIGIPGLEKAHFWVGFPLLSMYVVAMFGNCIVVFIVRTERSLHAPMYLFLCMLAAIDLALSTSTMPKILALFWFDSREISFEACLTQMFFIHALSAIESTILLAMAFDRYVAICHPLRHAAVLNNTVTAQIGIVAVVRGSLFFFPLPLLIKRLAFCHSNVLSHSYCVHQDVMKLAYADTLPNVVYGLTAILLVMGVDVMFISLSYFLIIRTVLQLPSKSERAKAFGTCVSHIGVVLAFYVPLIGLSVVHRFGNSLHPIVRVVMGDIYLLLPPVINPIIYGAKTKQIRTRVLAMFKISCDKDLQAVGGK
Experimental: Hana3A cells (modified human embryonic kidney cells) were cultured in 96 well plates in M10PSF medium. LNCaP human prostate cancer cells were cultured in both RPMI medium and androgen deprived RPMI medium. Hana3A cells were transfected with CRE-Luc (CREB-dependent luciferase (Firefly)) and SV40-RL promoter plasmids, and pCI and OR51E2 plasmids. […] Upon ligand binding, an increase in cAMP drives the expression of Firefly luciferase. Increase in luminescence signal was measured with a luminometer and Optima Data Analysis software. The luminescent signal is directly proportional to receptor activation. A general schematic of a luciferase assay is shown in FIG. 5 and a schematic of the assay used in this Example is shown in FIG. 6.
The top 56 compounds from the VLS list were tested using the in vitro expression and luciferase assay. […] The biologically relevant concentrations of each metabolite were individually determined based on available data in the literature. If no data were available, compounds were tested in the range of 1 nM-100 μM. Responses were normalized to the response with 1 mM propionic acid (PA), a previously identified agonist, and also to a response with no-control.

LNCaP cells [1] = experiment: RT-PCR assay of NED marker and OR51E2 transcript levels in LNCaP cells; format: cell-based, human
Experimental: To assess the differentiation status of LNCaP cells following treatment with an OR51E2 ligand, cells were exposed to the ligands for three days. Biological markers of NED were analyzed using an RT-PCR assay. The following markers were tested: neuron specific enolase (NSE) and α-methylacyl-CoA racemase (AMACR), an enzyme essential for isomerization of branched-chained fatty acids that is present at low levels in healthy prostate cells and increased in PCa and in NE-like cells. Furthermore, changes in the expression levels of OR51E2 and androgen receptor (AR) were determined. This experiment will also be conducted using RWPE-2 cells.
For example, 19-OH AD agonist treatment of LNCaP cells increased OR51E2 transcript levels. […] Further studies using siRNA gene knockdown assays, will determine whether activated/overexpressed OR51E2 is involved in NEtD.

LNCaP cells [2] = experiment: cell viability/proliferation assay of LNCaP cells (CellTiter-Glo); format: cell-based, human; conditions: 10 uM, 7 day incubation, vs untreated control
Experimental: The NEtD status was assessed through analysis of viability and proliferation of LNCap cells using use CellTiter-Glo Luminescent cell viability assay (Promega). […] Viability and proliferation assays will also be conducted with OR51E2 ligands in RWPE-2 cells.
Furthermore, a cell viability/proliferation assay of prostate cancer LNCaP cells was performed using 13-cis RA during a 7 day incubation period.

LNCaP cells [3] = conditions: cited from earlier work
LNCaP cells [4] = experiment: untargeted GC/MS metabolomics signatures of LNCaP cells treated with OR51E2 ligand; format: cell-based, human; conditions: 72 hours, 100 nM 19-OH AD, 250 μM AFMK, 1 mM PA
Experimental: Metabolomics signatures were assessed using untargeted gas chromatography/mass spectrometry (GC/MS) to analyze LNCaP cells treated with an OR51E2 ligand for 3 days. There were six biological replicates for each treatment and the results were analyzed using MetaboAnalyst software. The same analysis will also be conducted using RWPE-2 cells.
GC/MS analysis detected greater than 250 features, and 115 of them were annotated. In FIG. 24A-24F, the top 15 metabolites are presented showing the most significant differences in cells treated with agonists when compared to control cells.

[5] = 12 days incubation with agonist, vs control

| Compound | EC50 (OR51E2) [nM] | Efficacy (OR51E2) | other results |
| --- | --- | --- | --- |
| O=C1CCCN1 [2-Pyrrolidinone] | 1.9 | 0.525 | – |
| CC1=C(/C=C/C(C)=C/C=C/C(C)=C\C(=O)O)C(C)(C)CCC1 [13-cis RA, 13-cis retinoic acid] | – | – | IC50 (OR51E2; responses normalized to 1 mM PA, read-out: IC50 (OR51E2 antagonist)): 160 nM; OR51E2 transcript levels (LNCaP cells [1]; 10 μM, 3 days, vs control cells): significantly decreased; LNCaP growth (LNCaP cells [2]): effectively impeded; LNCaP cell growth and tumorigenic potential (LNCaP cells [3]; Dahiya et al. (1994)): inhibits cell growth and decreases tumorigenic potential |
| C[C@]12CC[C@H]3[C@@H](CCC4=CC(=O)CC[C@@]43CO)[C@@H]1CCC2=O [19-OH AD, 19-hydroxyandrost-4-ene-3,17-dione] | 0.15 | 0.890 | OR51E2 transcript levels (LNCaP cells [1]; [5]): increased; metabolite differences relative to controls (GC/MS) (LNCaP cells [4]): significant differences relative to controls |
| COc1ccc(NC=O)c(C(=O)CCNC(C)=O)c1 [AFMK, N-acetyl-N-formyl-5-metoxykynurenamine] | 12000 | 1.483 | metabolite differences relative to controls (GC/MS) (LNCaP cells [4]): significant differences relative to controls |
| Nc1ncnc2c1ncn2C1OC(CO)C2OP(=O)(O)OC21 (stereo not drawn) [Adenosine 2′,3′-cyclic phosphate] | 26 | 1.025 | – |
| C[C@]12CCC(=O)CC1CC[C@@H]1[C@@H]2CC[C@]2(C)C(=O)CC[C@@H]12 (stereo partly drawn) [Androstanedione] | 0.79 | 0.888 | – |
| C[C@@H](N)C(=O)N[C@H](C)C(=O)O [D-Alanyl-d-alanine] (H-[dA]-[dA]-OH) | 14000 | – | – |
| C[C@]12CC[C@H]3[C@@H](CCC4=CC(=O)CC[C@@]43C)[C@@H]1CC[C@H]2O [Epitestosterone] | 0.69 | 0.477 | – |
| C[C@]12CC[C@@H]3c4ccc(O)cc4CC[C@H]3[C@@H]1C[C@@H](O)[C@@H]2O [Estriol] | 53000 | – | – |
| Cc1c(O)cc2c(c1C)OC(C)(CCC(=O)O)CC2 (stereo not drawn) [Gamma-CEHC] | 6.4 | 1.286 | – |
| NCC(=O)O [Glycine] | – | 0.613 | – |
| NCC(=O)NCC(=O)O [Glycylglycine] (H-Gly-Gly-OH) | 11000 | – | – |
| O=C(O)C(=O)CO [Hydroxypyruvic acid] | 420 | 1.100 | – |
| OC[C@H]1O[C@H](O[C@H]2C(O)O[C@H](CO)[C@@H](O)[C@@H]2O)[C@H](O)[C@@H](O)[C@@H]1O (stereo partly drawn) [Kojibiose] | 1000 | 0.790 | – |
| O=C(O)[C@@H](O)CO [L-Glyceric acid] | 1.9 | – | – |
| CC(=O)N[C@@H](CCC(=O)O)C(=O)O [N-Acetylglutamic acid] | 0.23 | – | – |
| CCC(=O)O [PA, propionic acid] | – | – | AMACR transcript levels (LNCaP cells [1]; [5]): increased; NSE transcript levels (LNCaP cells [1]; [5]): increased; metabolite differences relative to controls (GC/MS) (LNCaP cells [4]): significant differences relative to controls |
| CCCCCCCCCCCCCCCC(=O)O [Palmitic acid] | 9.8 | 0.927 | – |
| NC(N)=O [Urea] | 23 | 0.580 | – |
| CC(=O)/C=C/C1=C(C)CCCC1(C)C [beta ionone, beta-ionone] | – | – | proliferation of LNCaP cells (LNCaP cells [3]; Neuhaus et al. (2009), OR51E2/PSGR activation): decreased |
